This is an account of results in paper PMC7730438, “Generation of KS-58 as the first K-Ras(G12D)-inhibitory peptide presenting anti-cancer activity in vivo” (Scientific Reports, 2020).

Where “and” joins values, the source holds several entries; their conditions need not be identical. Identical values can stand only once. Starred links: 1 amine or outer side, 2 acyl side, 3 side chain; linkers in the order of their positions; H or OH if unused. Positions of bridges follow the written chain, without caps; N, C: chain ends. Non-standard residues stand in square brackets, D forms with d. Residues, ends and D or L forms follow the SMILES beside them. Phe(4-F) = N[C@@H](Cc1ccc(F)cc1)C(=O)O; X1 = CCCCCCC[C@H](N[*:1])C(=O)[*:2]; Nle = CCCC[C@H](N)C(=O)O; X2 = C(C[*:1])C[*:2]; βAla = NCCC(=O)O

Series [1] relates to A549 cells. Description: Cell proliferation assay (CellTiter-Glo, 72 h). Type of series: cell-based, human. The settings on record: A549 (G12S), peptide 30 µM, n = 4, ± SEM. As to the method:
(§1) A427 (ATCC HTB-53), A549 (ATCC CCL-185), H1975 (ATCC CRL-5908), PANC-1 (ATCC CRL-1469), MIA PaCa-2 (ATCC CRL-1420), and Capan-1 (ATCC HTB-79) cells were purchased from ATCC, and each cell was cultured in medium supplemented with 10% fetal bovine serum (FBS), according to the protocol recommended by the manufacture.
(§2) The effect of peptides on cell proliferation of A427, A549, H1975, PANC-1, MIA PaCa-2, and Capan-1 cells was determined by 72 h exposure to peptides. Cells were seeded at 1000 cells/well in 96-well tissue culture plates in each growth media and allowed to adhere overnight on day 0. Peptides were solved in DMSO and then diluted with each growth media for a constant final DMSO concentration of 0.5%. Media in the wells were removed and replaced with diluted peptide solutions, and cells were incubated for 3 days. During the incubation, medium containing the peptides was replaced every day. Relative cell numbers were estimated using CellTiter-Glo assay kit (G7570, Promega, WI, USA) according to the manufacturer’s instructions. Luminescence was detected using SpectraMax i3x (MOLECULAR DEVICES, CA, USA). Cell proliferation rate (%) was calculated based on cell numbers at day 0 as 0% and at day 3 without peptide treatment as 100%.
(In general: In ATP-based viability assays light output follows the ATP content of the culture.)

For series [2], the system named is PANC-1 cells. Description: Cell proliferation assay (CellTiter-Glo, 72 h). Type of series: cell-based, human. To be noted: PANC-1 (G12D), peptide 30 µM, n = 4, ± SEM. As to the method:
as §1, §2

Series [3] deals with MIA PaCa-2 cells. The series is described as follows: Cell proliferation assay (CellTiter-Glo, 72 h). In kind it is cell-based, human. To be noted: MIA PaCa-2 (G12C), peptide 30 µM, n = 4, ± SEM. As to the method: as §1, §2
The test system of series [4] is A427 cells. Description: Cell proliferation assay (CellTiter-Glo, 72 h). Type of series: cell-based, human. The settings on record: A427 (G12D), peptide 30 µM, n = 4, ± SEM. As to the method: as §1, §2
For series [5], the system named is Capan-1 cells. Description: Cell proliferation assay (CellTiter-Glo, 72 h). Type of series: cell-based, human. To be noted: Capan-1 (G12V), peptide 30 µM, n = 4, ± SEM. As to the method:
as §1, §2

For series [6], the system named is H1975 cells. The series is described as follows: Cell proliferation assay (CellTiter-Glo, 72 h). Type of series: cell-based, human. To be noted: H1975 (WT), peptide 30 µM, n = 4, ± SEM. As to the method:
as §1, §2

For series [7], the system named is phosphorylation of ERK in PANC-1 cells. Description: Erk-phosphorylation assay (Phospho-ERK1/ERK2 ELISA). In kind it is cell-based, human. To be noted: PANC-1, peptide 30 µM, n = 4, ± SEM. As for the experimental part:
as §1
(§3) For evaluation of the effect of peptides on Ras–ERK pathways, phosphorylation of ERK was measured by Phospho-ERK1 (T202/Y204)/ERK2 (T185/Y187) DuoSet IC ELISA (DYC1018B-2, R&D SYSTEMS, MN, USA) according to the protocol supplied by the manufacturer. After 16 h serum starvation, cells were treated with peptides diluted in FBS-free medium for 1 h, and then treated with peptides diluted in FBS-containing medium for an additional 1 h. Phosphorylation rate of ERK (%) was calculated based on no serum stimulation as 0% and serum stimulation without peptide treatment as 100%.

For series [8], the system named is phosphorylation of ERK in A427 cells. Described as above. In kind it is cell-based, human. The settings on record: A427, peptide 30 µM, n = 4, ± SEM. As to the method:
as §1, §3

Series [9] deals with PANC-1 subcutaneous xenografts. Description: Anti-cancer efficacy in PANC-1 subcutaneous xenografts. To be noted: 40 mg/kg iv once every 2 days for 4 weeks. Type of series: in vivo, mice. As to the method:
Animal experiments were carried out at UNITECH Co. Ltd. in accordance with the guidelines of the Animal Care and Use Committee of UNITECH (approval No. AGR IMF-190807A-31, -33, AGR IMF-20615A-30). To establish subcutaneous xenograft tumor models, 1 × 10^7 cells/150 µL of PANC-1 cells were subcutaneously injected into the flank of Crlj:SHO-Prkdc^scidHr^hr female mice (7 weeks old; Charles River Laboratories). KS-58 was dissolved in DMSO and then tenfold diluted by saline. The peptide solution was injected intravenously to the mice bearing tumors once every 2 days for 4 weeks (40 mg/kg, n = 10). The tumor growth rate was recorded every 3 days by measuring the major and minor axes of the tumors formed with a digital caliper. Measurements were transformed into tumor volume using the formula: tumor volume (mm^3) = major axis × minor axis^2 × 0.5.

Series [10] is described as follows: Stability of peptide in rat plasma (RP-HPLC). Type of series: in vitro ADME. As for the experimental part: The stability of KS-58 in rat plasma was also evaluated. The peptides were incubated with rat plasma at 37 °C for different time periods (0 and 24 h), and the remaining amount of peptide was then determined using RP-HPLC. By comparing the peak area of the peptide, the remaining amount of peptide after plasma incubation was roughly estimated.
Each peptide (10 mM, 1 μL) was incubated with rat plasma (20 μL) prepared in house. […] The mixture was stored for 10 min at 4 °C and centrifuged at 15,000 rpm for 10 min at 4 °C. The supernatant was recovered and was directly supplied to RP-HPLC to determine the remaining amount of unmodified peptides in the sample.

Series [11] can be described thus: Pharmacokinetics study in mice, intravenous injection. Type of series: in vivo. As for the experimental part: Prior to the in vivo anti-cancer activity evaluation, a preliminary pharmacokinetics (PK) study was completed using a 20 mg/kg intravenous injection. Plasma was collected at 15 min, 1 h, 4 h, and 24 h after injection. […] KS-58 was detected in plasma 15 min and 1 h after intravenous injection, but it was not detected at 4 h and 24 h, due to the limited detection ability of RP-HPLC. The concentration change indicated a two-compartment model (Fig. 5A).
Animal experiments were carried out at UNITECH Co. Ltd. (Chiba, Japan) in accordance with the guidelines of the Animal Care and Use Committee of UNITECH (approval No. AGR IMF-190807A-30). KS-58 was dissolved in DMSO and then tenfold diluted by saline. The peptide solution was injected intravenously to Slc:ICR male mice (8 weeks old; Japan SLC, Inc.) (20 mg/kg, n = 3). Blood samples were collected from the mice at 15 min, 1 h, 4 h, and 24 h after injection. The blood was chilled on ice and then centrifuged at 12,000 rpm for 3 min at 4 °C. Plasma protein was precipitated by acetonitrile, and the supernatant was recovered. The remaining peptides in prepared samples were analyzed by RP-HPLC as described above.

Where [12] appears, read: rat plasma, incubation time 0 h.

`CCCCCCC[C@@H]1NC(=O)[C@@H]2CSCCCSC[C@@H](NC(=O)[C@H](Cc3c[nH]c4ccccc34)NC(=O)[C@@H]3CCCN3C(=O)[C@H](CC(=O)O)NC(=O)[C@H](Cc3ccc(F)cc3)NC(=O)[C@H](CO)NC1=O)C(=O)NCCC(=O)N1CCC[C@H]1C(=O)N[C@@H](CCCC)C(=O)N2` [KS-58, c[βAla-Pro-Nle-c(Cys-Anon-Ser-4fF-Asp-Pro-Trp-^DCys)]] (cyclo([βAla]P[Nle]C[X1]S[Phe(4-F)]DPW[dC]); linker 4-11 via X2): the “Cell proliferation (%)” value in [1] was 81.3 ± 1.5%; in [2] it was 50.1% and 50.1 ± 4.1%; in series [3], 86.8 ± 2.3%; in [4], 21.1% and 21.1 ± 5.5%; in series [5] it was 94.9 ± 2.2%; in [6], 92.7 ± 0.3%. The “pERK (%)” value in series [7] was 57.6% and 57.6 ± 7.6%; in series [8], 26.0% and 26.0 ± 6.0%. Further, the “Tumor growth (tumor volume) in subcutaneous xenografts” value in [9] is given as “significant tumor growth suppression”. The Peak area value in series [10] (Input (NT, no-serum treatment)) was 491,842; in series [10] (rat plasma, 37 °C, incubation time 24 h), 467,142; in series [10] (setting [12]), 473,575. Also, the recovery in series [10] (input control without serum treatment, Input (NT, no-serum treatment), read-out: Recovery rate (%)) amounted to 100%. The “Stability in rat plasma (in words)” value in series [10] (rat plasma, 37 °C, 24 h) is “remained intact for up to at least 24 h”. For the same compound, the recovery at 24 h, 0.476 mM in series [10] (rat plasma, 37 °C, incubation time 24 h, read-out: Recovery rate (%)) was 95%. The remaining at 24 h, 0.476 mM in series [10] (rat plasma, 37 °C, incubation time 24 h, read-out: Residual rate (%)) is 98.6%. For the same compound, the “Residual rate (%)” value in series [10] (setting [12]) is reported as 100%. Moreover, the recovery at 0 h, 0.476 mM in series [10] (rat plasma, incubation time 0 h, read-out: Recovery rate (%)) stood at 96.3%. Also, the “Detection in plasma by RP-HPLC” value in series [11] (20 mg/kg iv, 15 min and 1 h after injection) is given as “detected”; in series [11] (20 mg/kg iv, 4 h and 24 h after injection), “not detected”. The “peptide concentration in the blood” value in series [11] (20 mg/kg iv, for at least 1 h after the injection) was “more than 30 μM”. The half-life in series [11] (male, Slc:ICR, mouse, plasma, 20 mg/kg intravenous injection, n = 3, read-out: blood circulation half-life (t1/2) in the elimination phase) was found to be 60 ± 1.9 min.
